Results on two molecules are retold here after PMC11101630.

Data set [1] deals with RhoBAST WT (RNA, aptamer) GGAACCUCCGCGAAAGCGGUGAAGGAGAGGCGCAAGGUUAACCGCCUCAGGUUCC
Nature of the data set: ITC. The settings on record: K+ 100 mM, Mg2+ 0.5 mM; 20 mM Tris-HCl pH 7.5, 25 °C; no binding observed without Mg2+.

Data set [2] concerns RhoBAST A50U (RNA, aptamer) GGAACCUCCGCGAAAGCGGUGAAGGAGAGGCGCAAGGUUUACCGCCUCAGGUUCC
Nature of the data set: ITC. The note with it: K+ 100 mM; Mg2+ concentration not given; 20 mM Tris-HCl pH 7.5, 25 °C, nM inferred from ΔG.

The test system of data set [3] is RhoBAST A51U (RNA, aptamer) GGAACCUCCGCGAAAGCGGUGAAGGAGAGGCGCAAGGUUAUCCGCCUCAGGUUCC
Nature of the data set: ITC. The note with it: K+ 100 mM; Mg2+ concentration not given; 20 mM Tris-HCl pH 7.5, 25 °C, nM inferred from ΔG.

The test system of data set [4] is RhoBAST C52A (RNA, aptamer) GGAACCTCCGCGAAAGCGGUGAAGGAGAGGCGCAAGGUUAAACGCCUCAGGUUCC
Nature of the data set: ITC. The settings on record: K+ 100 mM; Mg2+ concentration not given; 20 mM Tris-HCl pH 7.5, 25 °C; 46 x K of WT.

The subject of data set [5] is RhoBAST A36C (RNA, aptamer) GGAACCUCCGCGAAAGCGGUGAAGGCGAGGCGCAAGGUUAACCGCCUCAGGUUCC
Nature of the data set: ITC. The note with it: K+ 100 mM; Mg2+ concentration not given; 20 mM Tris-HCl pH 7.5, 25 °C; 40 x K of WT.

The test system of data set [6] is RhoBAST U30C/A36C (RNA, aptamer) GGAACCUCCGCGAAAGCGGCGAAGGCGAGGCGCAAGGUUAACCGCCUCAGGUUCC
Nature of the data set: ITC. The note with it: K+ 100 mM; Mg2+ concentration not given; 20 mM Tris-HCl pH 7.5, 25 °C; 28 x K of WT.

In data set [7] the test system is RhoBAST A36U (RNA, aptamer) GGAACCUCCGCGAAAGCGGUGAAGGUGAGGCGCAAGGUUAACCGCCUCAGGUUCC
Nature of the data set: ITC. The settings on record: K+ 100 mM; Mg2+ concentration not given; 20 mM Tris-HCl pH 7.5, 25 °C; 3.5 x K of WT.

Data set [8] deals with RhoBAST G46A (RNA, aptamer) GGAACCUCCGCGAAAGCGGUGAAGGAGAGGCGCAAAGUUAACCGCCUCAGGUUCC
Nature of the data set: ITC. The note with it: K+ 100 mM; Mg2+ concentration not given; 20 mM Tris-HCl pH 7.5, 25 °C; 6.2 x K of WT.

The test system of data set [9] is RhoBAST G47A (RNA, aptamer) GGAACCUCCGCGAAAGCGGUGAAGGAGAGGCGCAAGAUUAACCGCCUCAGGUUCC
Nature of the data set: ITC. The settings on record: K+ 100 mM; Mg2+ concentration not given; 20 mM Tris-HCl pH 7.5, 25 °C; 26.8 x K of WT.

Data set [10] relates to RhoBAST U48C (RNA, aptamer) GGAACCUCCGCGAAAGCGGUGAAGGAGAGGCGCAAGGCUAACCGCCUCAGGUUCC
Nature of the data set: ITC. The note with it: K+ 100 mM; Mg2+ concentration not given; 20 mM Tris-HCl pH 7.5, 25 °C; 1.3 x K of WT.

The test system of data set [11] is RhoBAST U49A (RNA, aptamer) GGAACCUCCGCGAAAGCGGUGAAGGAGAGGCGCAAGGUAAACCGCCUCAGGUUCC
Nature of the data set: ITC. The note with it: K+ 100 mM; Mg2+ concentration not given; 20 mM Tris-HCl pH 7.5, 25 °C; 100 x K of WT.

Data set [12] deals with RhoBAST A33G (RNA, aptamer) GGAACCUCCGCGAAAGCGGUGAGGGAGAGGCGCAAGGUUAACCGCCUCAGGUUCC
Nature of the data set: ITC. The note with it: K+ 100 mM; Mg2+ concentration not given; 20 mM Tris-HCl pH 7.5, 25 °C; similar to WT.

Data set [13] concerns RhoBAST A33C (RNA, aptamer) GGAACCUCCGCGAAAGCGGUGACGGAGAGGCGCAAGGUUAACCGCCUCAGGUUCC
Nature of the data set: ITC. The settings on record: K+ 100 mM; Mg2+ concentration not given; 20 mM Tris-HCl pH 7.5, 25 °C; similar to WT.

In data set [14] the test system is RhoBAST C8G (RNA, aptamer) GGAACCUGCGCGAAAGCGGUGAAGGAGAGGCGCAAGGUUAACCGCCUCAGGUUCC
Nature of the data set: ITC. The settings on record: K+ 100 mM; Mg2+ concentration not given; 20 mM Tris-HCl pH 7.5, 25 °C; affinity not prominently reduced.

Data set [15] deals with RhoBAST G37A (RNA, aptamer) GGAACCUCCGCGAAAGCGGUGAAGGAAAGGCGCAAGGUUAACCGCCUCAGGUUCC
Nature of the data set: ITC. The note with it: K+ 100 mM; Mg2+ concentration not given; 20 mM Tris-HCl pH 7.5, 25 °C; affinity not prominently reduced.

Data set [16] concerns RhoBAST ∆U7 (RNA, aptamer) GGAACCCCGCGAAAGCGGUGAAGGAGAGGCGCAAGGUUAACCGCCUCAGGUUCC
Nature of the data set: ITC. The settings on record: K+ 100 mM; Mg2+ concentration not given; 20 mM Tris-HCl pH 7.5, 25 °C; affinity not prominently reduced.

Data set [17] deals with RhoBAST G31C (RNA, aptamer) GGAACCTCCGCGAAAGCGGUCAAGGAGAGGCGCAAGGUUAACCGCCUCAGGUUCC
Nature of the data set: ITC. The note with it: K+ 100 mM; Mg2+ concentration not given; 20 mM Tris-HCl pH 7.5, 25 °C; 100 μM TMR-DN titrated into 10 μM RNA.

Data set [18] concerns RhoBAST C52G (RNA, aptamer) GGAACCTCCGCGAAAGCGGUGAAGGAGAGGCGCAAGGUUAAGCGCCUCAGGUUCC
Nature of the data set: ITC. The note with it: K+ 100 mM; Mg2+ concentration not given; 20 mM Tris-HCl pH 7.5, 25 °C; 100 μM TMR-DN titrated into 10 μM RNA.

Data set [19] concerns RhoBAST G35C/C52G (RNA, aptamer) GGAACCTCCGCGAAAGCGGUGAAGCAGAGGCGCAAGGUUAAGCGCCUCAGGUUCC
Nature of the data set: ITC. The note with it: K+ 100 mM; Mg2+ concentration not given; 20 mM Tris-HCl pH 7.5, 25 °C; 100 μM TMR-DN titrated into 10 μM RNA.

Data set [20] relates to RhoBAST G35A (RNA, aptamer) GGAACCTCCGCGAAAGCGGUGAAGAAGAGGCGCAAGGUUAACCGCCUCAGGUUCC
Nature of the data set: ITC. The note with it: K+ 100 mM; Mg2+ concentration not given; 20 mM Tris-HCl pH 7.5, 25 °C; 100 μM TMR-DN titrated into 10 μM RNA.

The subject of data set [21] is RhoBAST G47C (RNA, aptamer) GGAACCUCCGCGAAAGCGGUGAAGGAGAGGCGCAAGCUUAACCGCCUCAGGUUCC
Nature of the data set: ITC. The settings on record: K+ 100 mM; Mg2+ concentration not given; 20 mM Tris-HCl pH 7.5, 25 °C; 100 μM TMR-DN titrated into 10 μM RNA.

Data set [22] relates to RhoBAST L2-U1 (L2'-U1; RhoBAST-U1A Loop) (RNA, aptamer) GGAACCUCCGCCCAUUGCACUCCGGGCGGUGAAGGAGAGGCGCAAGGUUAACCGCCUCAGGUUCC
Nature of the data set: X-ray crystal structure, 2.75 Å. The note with it: Mg2+; co-crystal with U1A protein.

Data set [23] has the same test system. Nature of the data set: binding assay in Supplementary Fig. 1b. The settings on record: K+ 100 mM, Mg2+ 10 mM assumed; 20 mM Tris-HCl pH 7.5, 25 °C, nM inferred from ΔG high affinity as wild type.
The subject of data set [24] is RhoBAST L3'-U1 (RNA, aptamer) GGAACCUCCGCGAAAGCGGUGAAGGAGAGGCCAUUGCACUCCGGCCUCAGGUUCC
Nature of the data set: binding assay in Supplementary Fig. 1b.

Data set [25] has as its target U1A (U1 RNA-binding protein, co-crystallization chaperone) (human, UniProt P09012 1-102). Nature of the data set: ITC; TMR-DN presence in this assay not stated; ITC: 20 mM Tris-HCl pH 7.5, 100 mM KCl, 0-10 mM MgCl2, 25 C (described for RNA-fluorophore titrations; U1A conditions not separately given). The note with it: protein: recombinant; four-way junction; U1A hairpin loop. (ITC needs no label: the signal is the heat of the interaction.)

Chain of U1A (U1 RNA-binding protein, co-crystallization chaperone) (P09012 1-102): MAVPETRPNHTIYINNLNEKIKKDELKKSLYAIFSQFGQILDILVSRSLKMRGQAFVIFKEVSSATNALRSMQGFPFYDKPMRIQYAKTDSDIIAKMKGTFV

As a reminder, the KD is the concentration at which binding is half-saturated. A low value points to higher affinity. As to `CN(C)c1ccc2c(-c3ccc(C(=O)NCCOCCOCCNc4ccc([N+](=O)[O-])cc4[N+](=O)[O-])cc3C(=O)[O-])c3ccc(=[N+](C)C)cc-3oc2c1`, the KD in data set [1] is listed as ~ 24 nM; in data set [2] it was 3590 nM; in data set [3], 1060 nM; in [4], 1600 nM; in data set [5] it was 1400 nM; in data set [6] it was 976 nM. Besides, the KD in [7] is 122 nM; in data set [8], 217 nM; in [9] it was 931 nM; in data set [10], 45.5 nM; in [11], 3510 nM; in [12], 35.1 nM. In addition, the KD in data set [13] was 65.5 nM; in data set [14], 47 nM; in data set [15] it was 83 nM; in data set [16], 56.9 nM; in [23], 35.5 ± 5.69 nM. The binding entry in data set [17] is listed as “no”; in [18] it was “no”; in data set [19], “no”; in data set [20], “no”; in data set [21] it was “no”; in data set [22] it was “yes”. Also, the binding entry in data set [24] is on record as “no”.

B1: RhoBAST-U1A Loop (L2'-U1) (structured_RNA)
RNA: GGAACCUCCGCCCAUUGCACUCCGGGCGGUGAAGGAGAGGCGCAAGGUUAACCGCCUCAGGUUCC
For orientation: Kd means the constant that tells how readily two partners part at equilibrium. For B1, the Kd in data set [25] was determined as 7.94 ± 1.74 nM.
